Results reported in patent US20150125915A1, “Method for Producing Lactic Acid” (Kao Corporation, priority 2012, published 2015).

Tests used:
[1] = Evaluation of foaming property by the inversion stirring method; assay type: physicochemical; conditions: for Volume of foam (relative value): 0.5% (w/v) surfactant in PDB medium, 30 seconds after stirring, foam in the absence of the surfactant = 100; for Volume of foam relative to the volume of foam in the absence of the surfactant (in words): 0.5% (w/v) in PDB medium
Experimental: Each surfactant used in Test Example 2 was evaluated for its foaming properties by the inversion stirring method. 100 mL of a PDB medium non-supplemented or supplemented with 0.5% (w/v) (final concentration) of a surfactant was added to a graduated cylindrical container of 50 mm in diameter and then inversion-stirred for 300 seconds using a flat propeller while the propeller was inverted every 6 seconds at 1000 rpm. 30 seconds after the completion of stirring, the volume of foam in the medium was measured.

[2] = tested on: Rhizopus oryzae JCM14625 strain (=NBRC 5384); assay: LDH activity evaluation-1: mycelia prepared from spores in surfactant-supplemented PDB medium, LDH activity of fungus body extract; assay type: cell-based; conditions: for LDH activity (relative value): 0.5% (w/v) surfactant in PDB medium at spore germination, LDH activity in the absence of the surfactant = 100; for LDH activity compared with control fungus bodies (in words): 0.5% (w/v) surfactant at spore germination, versus medium non-supplemented with the surfactant
Experimental: A loopful of a cryopreserved spore suspension sample (−80° C.) of a Rhizopus oryzae JCM14625 strain (=NBRC 5384) obtained from a culture collection Riken BioResource Center (BRC) was inoculated to a PDA medium (Difco Potato Dextrose Agar, manufactured by Becton, Dickinson and Company) and then statically cultured at 30° C. for from 7 to 10 days. After visual confirmation of hyphal growth and blackening at the ends of hyphae associated with sporulation, from 30 to 40 mL of saline was added thereto. Spores, together with hyphae, were collected into a 50-mL centrifugal tube with a lid (manufactured by Greiner bio-one) using a platinum loop and then vigorously mixed in the tube. The spore suspension thus mixed was filtered through 3GP100 cylindrical funnel-shaped glass filter (manufactured by Shibata Scientific Technology Ltd.). The resulting filtrate was used as a spore solution. The number of spores in the spore solution was measured using a hemocytometer (D=1/50 mm· 1/400 mm^2) after appropriate dilution with saline.
80 mL of a PDB medium non-supplemented or supplemented with 0.5% (w/v) (final concentration) of each surfactant described below was applied to a 200-mL baffled Erlenmeyer flask (manufactured by Asahi Glass Co., Ltd.). The Rhizopus oryzae spore suspension prepared in Production Example 1 was inoculated thereto at a dose of 1×10^3 spores/mL of the medium and then cultured at 27° C. for 3 days with stirring at 170 rpm. Since mycelia would remain on the filter, the cultures were filtered through a stainless sieve of 250 μm in mesh size (manufactured by AS ONE Corp.) sterilized in advance to recover fungus bodies onto the filter.
From3.0 to 4.0 g (wet weight) of the recovered fungus bodies was inoculated to 100 mL of an inorganic culture medium (composition: 10% glucose, 0.1% ammonium sulfate, 0.06% potassium dihydrogen phosphate, 0.025% magnesium sulfate heptahydrate, 0.009% zinc sulfate heptahydrate, and 5.0% calcium carbonate; all the concentrations mean % (w/v)) applied to a 500-mL Erlenmeyer flask, and then cultured at 27° C. for approximately 40 hours with stirring at 220 rpm. Subsequently, the cultures thus obtained by culture in the inorganic culture medium were filtered using a stainless screen filter holder (manufactured by EMD Millipore) sterilized in advance to recover fungus bodies onto the filter. On this filter holder, the fungus bodies were further washed with 100 mL of saline. The saline used in washing was removed by suction filtration. The obtained fungus bodies were used in the following LDH activity evaluation and evaluation of the ability to fermentatively produce lactic acid.
6.0 g of the wet fungus bodies of the genus Rhizopus obtained in Production Example 3 was inoculated to 40 mL of an inorganic culture medium for lactic acid production evaluation (composition: 8.0% glucose, 0.1% ammonium sulfate, 0.06% potassium dihydrogen phosphate, 0.025% magnesium sulfate heptahydrate, 0.009% zinc sulfate heptahydrate, and 5.0% calcium carbonate; all the concentrations mean % (w/v)) applied to a 200-mL Erlenmeyer flask, and then cultured at 35° C. with stirring at 170 rpm. After 4.5-hour culture of the fungus bodies of the genus Rhizopus with stirring, the fungus bodies were filtered using a stainless screen filter holder (manufactured by EMD Millipore) sterilized in advance to recover fungus bodies onto the filter. On this filter holder, the fungus bodies were further washed with 100 mL of saline. The saline used in washing was removed by suction filtration. 0.3 g of the obtained fungus bodies was recovered into a 3-mL disruption tube (manufactured by Yasui Kikai Corp.). Metal cone for 3 mL (manufactured by Yasui Kikai Corp.) was added to the tube, which was then capped and then frozen in liquid nitrogen. The frozen 3-mL disruption tube was applied to Multi-Beads Shocker (manufactured by Yasui Kikai Corp.). The fungus bodies were disrupted at 1700 rpm for 10 seconds.

[3] = tested on: Rhizopus oryzae JCM14625 strain (=NBRC 5384); assay: Evaluation of ability to produce lactic acid-1 (production rate of lactic acid); assay type: cell-based; conditions: 0.5% (w/v) surfactant in PDB medium at spore germination; rate in the absence of the surfactant = 100
Experimental: Specifically, the mycelia of a fungus of the genus Rhizopus were prepared by the method of Production Example 2 using the surfactant and then grown by the method of Production Example 3. 6.0 g of the obtained wet fungus bodies of the genus Rhizopus was inoculated to 40 mL of an inorganic culture medium for lactic acid production evaluation (composition: 8.0% glucose, 0.1% ammonium sulfate, 0.06% potassium dihydrogen phosphate, 0.025% magnesium sulfate heptahydrate, 0.009% zinc sulfate heptahydrate, and 5.0% calcium carbonate; all the concentrations mean % (w/v)) applied to a 200-mL Erlenmeyer flask, and then cultured at 35° C. with stirring at 170 rpm. The supernatant of the culture medium was recovered every 2 hours from 30 minutes after the fungus body inoculation. Glucose and lactic acid were quantified by the procedures described later in Reference Example 1. A relative value of the production rate of lactic acid was determined on the basis of the calculation method described in Reference Example 2.
Glucose and lactic acid were quantified using an HPLC apparatus LaChrom Elite (manufactured by Hitachi High-Technologies Corp.). The analytical column used was a carbohydrate/organic acid analysis column HPX-87H (7.8 mm I.D.×30 cm, manufactured by Bio-Rad Laboratories, Inc.) connected with a guard column Cation H (4.6 mm I.D.×3.0 cm, manufactured by Bio-Rad Laboratories, Inc.). Elution was performed under conditions involving 10 mM sulfuric acid as an eluent, a flow rate of 0.85 mL/min, and a column temperature of 50° C. Glucose and lactic acid were detected using a differential refractive index detector (RI detector) and a UV detector (detection wavelength: 210 nm), respectively. The standard samples used were glucose (distributor code: 049-31165, manufactured by Wako Pure Chemical Industries Ltd.), and lithium L-lactate (product number: L2250, manufactured by Sigma-Aldrich Inc.). Quantification was performed on the basis of concentration calibration curves prepared using these standard samples.
The supernatant sample of each culture medium to be subjected to HPLC analysis was appropriately diluted in advance with 37 mM sulfuric acid and then applied to DISMIC-13cp (0.20 μm cellulose acetate membrane, manufactured by […] Group) or MULTI SCREEN MNHV45 (0.45 μm Durapore membrane, manufactured by EMD Millipore) to remove insoluble matter.
The concentration of lactic acid (unit: g of lactic acid/L of medium) in the supernatant sample of each culture medium was measured according to Reference Example 1 and divided by a time (unit: hr) required for change in lactic acid concentration to calculate the production rate of lactic acid per unit time (unit: g of lactic acid/L/hr). In addition, a relative value to the production rate of lactic acid under control conditions in each Production Example was determined.

| Substance | Volume of foam (relative value) [1] [relative value] | LDH activity (relative value) [2] [relative value] | Production rate of lactic acid (relative value) [3] [relative value] | Volume of foam relative to the volume of foam in the absence of the surfactant (in words) [1] | LDH activity compared with control fungus bodies (in words) [2] |
| --- | --- | --- | --- | --- | --- |
| Polyoxyethylene (3) lauryl ether | 250 | 170 | 203 | – | – |
| Polyoxyethylene (4) lauryl ether | 350 | 214 | 171 | – | – |
| Polyoxyethylene (4) sorbitan monolaurate | 150 | 140 | 142 | twice or less | – |
| Polyoxyethylene (5) lauryl ether | – | 112 | – | – | – |
| Polyoxyethylene (6) lauryl ether | – | 93 | – | – | slightly lower LDH activity |
| Polyoxyethylene (10) octyl phenyl ether | 2000 | 178 | 254 | – | higher LDH activity |
| Polyoxyethylene (20) sorbitan monolaurate | 1350 | 148 | 137 | – | – |
| Sodium deoxycholate | – | 109 | – | – | higher LDH activity |
| Sorbitan monooleate | 100 | 135 | 113 | twice or less | higher LDH activity |
